In the NIST ThermoML archive (doi:10.1021/je050538q):
Numbers after ± are expanded uncertainties.

How the values were obtained:
[1] = xn = mol fraction of the nth substance listed; conditions: 298.15 K, 101 kPa, Liquid
[2] = refractive index (Na D-line) (dimensionless); xn = mol fraction of the nth substance listed; conditions: 298.15 K, 101 kPa, Liquid
[3] = Liquid
[4] = refractive index (Na D-line) (dimensionless); conditions: 298.15 K; 101.33 kPa; Liquid

CCC(C)(C)O [2-methylbutan-2-ol] + CC(=O)N(C)C
Conditions	mass density, [1] [kg/m3]	refractive index, [2]	viscosity, [1] [mPa·s]
x2 = 0	804.98 ± 0.47	1.4025 ± 0.0006	3.645 ± 0.041
x2 = 0.0112	806.65 ± 0.48	1.4031 ± 0.0006	3.6 ± 0.041
x2 = 0.0284	809.1 ± 0.47	1.404 ± 0.0006	3.533 ± 0.04
x2 = 0.0423	810.93 ± 0.47	1.4046 ± 0.0006	3.48 ± 0.04
x2 = 0.0681	814.29 ± 0.47	1.4058 ± 0.0006	3.381 ± 0.039
x2 = 0.1023	818.47 ± 0.46	1.4072 ± 0.0006	3.254 ± 0.037
x2 = 0.1613	825.31 ± 0.45	1.4095 ± 0.0006	3.041 ± 0.035
x2 = 0.2112	830.81 ± 0.44	1.4113 ± 0.0006	2.87 ± 0.033
x2 = 0.253	835.39 ± 0.44	1.4128 ± 0.0006	2.731 ± 0.032
x2 = 0.2912	839.58 ± 0.43	1.4141 ± 0.0006	2.608 ± 0.03
x2 = 0.3366	844.6 ± 0.43	1.4156 ± 0.0006	2.467 ± 0.029
x2 = 0.3844	850.11 ± 0.42	1.4171 ± 0.0006	2.325 ± 0.027
x2 = 0.4203	854.29 ± 0.42	1.4182 ± 0.0006	2.221 ± 0.026
x2 = 0.4743	860.87 ± 0.41	1.4198 ± 0.0006	2.071 ± 0.024
x2 = 0.5864	875.18 ± 0.39	1.423 ± 0.0006	1.78 ± 0.021
x2 = 0.6721	886.7 ± 0.38	1.4254 ± 0.0006	1.578 ± 0.019
x2 = 0.7474	897.47 ± 0.37	1.4276 ± 0.0006	1.413 ± 0.017
x2 = 0.8321	910.06 ± 0.36	1.4302 ± 0.0006	1.242 ± 0.015
x2 = 0.9168	923.22 ± 0.34	1.4329 ± 0.0006	1.086 ± 0.014
x2 = 0.954	929.18 ± 0.34	1.4341 ± 0.0006	1.021 ± 0.013

CCC(C)(C)O [2-methylbutan-2-ol] + CCOC(C)=O
Conditions	mass density, [1] [kg/m3]	refractive index, [2]	viscosity, [1] [mPa·s]
x1 = 0.0279	891.15 ± 0.54	1.3711 ± 0.0007	0.464 ± 0.008
x1 = 0.0573	887.59 ± 0.53	1.3723 ± 0.0007	0.508 ± 0.008
x1 = 0.096	883.06 ± 0.53	1.3739 ± 0.0007	0.567 ± 0.009
x1 = 0.1672	874.97 ± 0.52	1.3767 ± 0.0006	0.691 ± 0.01
x1 = 0.2475	866.39 ± 0.51	1.3798 ± 0.0006	0.85 ± 0.011
x1 = 0.3322	857.83 ± 0.5	1.383 ± 0.0006	1.041 ± 0.014
x1 = 0.4168	849.81 ± 0.5	1.3861 ± 0.0006	1.261 ± 0.016
x1 = 0.4994	842.59 ± 0.49	1.3891 ± 0.0006	1.503 ± 0.019
x1 = 0.5831	835.67 ± 0.49	1.3919 ± 0.0006	1.776 ± 0.022
x1 = 0.6658	829.16 ± 0.48	1.3946 ± 0.0006	2.078 ± 0.025
x1 = 0.7486	822.86 ± 0.48	1.397 ± 0.0006	2.412 ± 0.028
x1 = 0.8336	816.62 ± 0.48	1.3993 ± 0.0006	2.791 ± 0.032
x1 = 0.9149	810.81 ± 0.48	1.4011 ± 0.0006	3.188 ± 0.037
x1 = 0.9445	808.73 ± 0.48	1.4017 ± 0.0006	3.344 ± 0.038
x1 = 0.9712	806.91 ± 0.48	1.4021 ± 0.0006	3.486 ± 0.04
x1 = 1	804.98 ± 0.47	1.4025 ± 0.0006	3.645 ± 0.041

CCOC(C)=O [ethyl acetate] + CC(=O)N(C)C
x2 = 0
Conditions	mass density [kg/m3]	refractive index	viscosity [mPa·s]
[1]	894.6 ± 0.54	–	0.426 ± 0.007
[2]	–	1.3699 ± 0.0007	–

CCOC(C)=O [ethyl acetate] + CCC(C)(C)O
x2 = 0
Conditions	mass density [kg/m3]	refractive index	viscosity [mPa·s]
[1]	894.6 ± 0.54	–	0.426 ± 0.007
[2]	–	1.3699 ± 0.0007	–

CC(=O)N(C)C [N,N-dimethylethanamide]
[3], 298.15 K, 101 kPa
Conditions	mass density [kg/m3]	viscosity [mPa·s]
–	936.7 ± 0.33	0.945 ± 0.012

Conditions	refractive index
[4]	1.4357 ± 0.0006

CCC(C)(C)O [2-methylbutan-2-ol]
[3], 298.15 K, 101 kPa
Conditions	mass density [kg/m3]	viscosity [mPa·s]
–	804.98 ± 0.47	3.645 ± 0.041

Conditions	viscosity [mPa·s]
[3], 303.15 K, 101.33 kPa, Capillary tube (Ostwald / Ubbelohde) method	2.81 ± 0.017

Conditions	refractive index
[4]	1.4025 ± 0.0006

CC(=O)N(C)C [N,N-dimethylethanamide] + CCC(C)(C)O
x1 = 1
Conditions	mass density [kg/m3]	refractive index	viscosity [mPa·s]
[1]	936.7 ± 0.33	–	0.945 ± 0.012
[2]	–	1.4357 ± 0.0006	–

CCOC(C)=O [ethyl acetate]
[3], 298.15 K, 101 kPa
Conditions	mass density [kg/m3]	viscosity [mPa·s]
–	894.6 ± 0.54	0.426 ± 0.007

Conditions	refractive index
[4]	1.3699 ± 0.0007

CC(=O)N(C)C [N,N-dimethylethanamide] + CCOC(C)=O
Conditions	mass density, [1] [kg/m3]	refractive index, [2]	viscosity, [1] [mPa·s]
x1 = 0.0392	896.84 ± 0.53	1.3731 ± 0.0007	0.442 ± 0.007
x1 = 0.0791	898.95 ± 0.52	1.3763 ± 0.0007	0.458 ± 0.008
x1 = 0.156	902.75 ± 0.5	1.3824 ± 0.0006	0.49 ± 0.008
x1 = 0.2331	906.43 ± 0.49	1.3883 ± 0.0006	0.523 ± 0.008
x1 = 0.3109	909.97 ± 0.47	1.3942 ± 0.0006	0.558 ± 0.008
x1 = 0.3875	913.34 ± 0.45	1.3999 ± 0.0006	0.595 ± 0.009
x1 = 0.4646	916.63 ± 0.44	1.4054 ± 0.0006	0.634 ± 0.009
x1 = 0.541	919.8 ± 0.42	1.4106 ± 0.0006	0.674 ± 0.009
x1 = 0.6137	922.68 ± 0.41	1.4153 ± 0.0006	0.713 ± 0.01
x1 = 0.6931	925.71 ± 0.39	1.4201 ± 0.0006	0.757 ± 0.01
x1 = 0.7718	928.62 ± 0.37	1.4246 ± 0.0006	0.803 ± 0.011
x1 = 0.8145	930.15 ± 0.36	1.4269 ± 0.0006	0.828 ± 0.011
x1 = 0.8896	932.81 ± 0.35	1.4307 ± 0.0006	0.874 ± 0.011
x1 = 0.9558	935.14 ± 0.33	1.4338 ± 0.0006	0.916 ± 0.012
x1 = 1	936.7 ± 0.33	1.4357 ± 0.0006	0.945 ± 0.012
